Source: patent EP0546013B1, “GLUCAGON ANALOGS WITH ASP-9 REPLACEMENTS OR DELETIONS” (THE ROCKEFELLER UNIVERSITY, priority 1990, dated 1997)
Ends that are not written are not given here.

Legend:
adenylate cyclase [1] = conditions: measured as amides; for pA2 Value: negative logarithm of the antagonist concentration that reduces the response to 1 unit of agonist to that of 0.5 unit; for % Relative Activity: relative potency in stimulating adenylate cyclase
Experimental: The inhibition index is the molar ratio of antagonist to agonist which reduces the biological response to one half of the value for the agonist in the absence of antagonist. It will be discussed more fully hereinafter.
Adenylate Cyclase Assay. The assay on liver membranes was performed according to Salomon et al. [Salomon, Y., Londos, C. & Rodbell, M. Anal. Biochem. 58, 541, 548 (1974)].
The purpose of the adenylate cyclase assay is to measure the ability of the compound under test to stimulate the activity of adenylate cyclase. The assays are used to measure relative potency, maximum activity and inhibition index.
The inhibition index, defined above, was determined from adenylate cyclase assays by two different protocols. • 1. A glucagon standard curve for cAMP vs glucagon concentration was established. Then another glucagon assay curve was measured in the presence of a constant amount of antagonist. […] A series of tubes were set up containing an amount of glucagon which will produce 90% of maximum response. Increasing amounts of antagonist were then added and the concentration that reduced the response to 45% of maximum was determined.

glucagon receptor = conditions: prior-art antagonist, background; cited from earlier work
[2] = tested on: another binding system in the hepatocyte membrane; conditions: prior-art antagonist, background; cited from earlier work
adenylate cyclase [3] = conditions: prior-art antagonist, background; cited from earlier work

Row | Molecule | pA2 Value (adenylate cyclase [1]) | % Relative Activity (adenylate cyclase [1]) [%] | binding to the glucagon receptor (glucagon receptor) | production of inositol trisphosphate and calcium ions [2] | activation of adenylate cyclase (adenylate cyclase [3])
1 | SQGTFTSHYSKYLDSRRAQDFVQWLMNT-NH2 [compound 17, des-His^1[His^9]] | 7.0 | 0.011 | – | – | –
2 | HSQGTFTSYSKYLDSRRAQDFVQWLMNT-NH2 [compound 2, des-Asp^9] | 7.2 | 1.04 | – | – | –
3 | COC(=O)CC[C@H](NC(=O)[C@H](CO)NC(=O)[C@@H](NC(=O)[C@H](Cc1ccccc1)NC(=O)[C@@H](NC(=O)CNC(=O)[C@H](CCC(N)=O)NC(=O)[C@@H](N)CO)[C@@H](C)O)[C@@H](C)O)C(=O)N[C@@H](Cc1ccc(O)cc1)C(=O)N[C@@H](CO)C(=O)N[C@@H](CCCCN)C(=O)N[C@@H](Cc1ccc(O)cc1)C(=O)N[C@@H](CC(C)C)C(=O)N[C@@H](CC(=O)O)C(=O)N[C@@H](CO)C(=O)N[C@@H](CCCNC(=N)N)C(=O)N[C@@H](CCCNC(=N)N)C(=O)N[C@@H](C)C(=O)N[C@@H](CCC(N)=O)C(=O)N[C@@H](CC(=O)O)C(=O)N[C@@H](Cc1ccccc1)C(=O)N[C@H](C(=O)N[C@@H](CCC(N)=O)C(=O)N[C@@H](Cc1c[nH]c2ccccc12)C(=O)N[C@@H](CC(C)C)C(=O)N[C@@H](CCSC)C(=O)N[C@@H](CC(N)=O)C(=O)N[C@H](C(N)=O)[C@@H](C)O)C(C)C [compound 12, des-His^1[Glu^9-(OCH3)]] | 7.35 | 0.011 | – | – | –
4 | SQGTFTSKYSKYLDSRRAQDFVQWLMNT-NH2 [compound 16, des - His^1 [Lys^9] glucagon amide] | 7.35 | <0.0012 | – | – | –
5 | SQGTFTSYSKYLDSRRAQDFVQWLMNT-NH2 [compound 20, des-His^1des-Asp^9] | 5.5 | <0.0022 | – | – | –
6 | CCCC[C@H](NC(=O)[C@H](CO)NC(=O)[C@@H](NC(=O)[C@H](Cc1ccccc1)NC(=O)[C@@H](NC(=O)CNC(=O)[C@H](CCC(N)=O)NC(=O)[C@@H](N)CO)[C@@H](C)O)[C@@H](C)O)C(=O)N[C@@H](Cc1ccc(O)cc1)C(=O)N[C@@H](CO)C(=O)N[C@@H](CCCCN)C(=O)N[C@@H](Cc1ccc(O)cc1)C(=O)N[C@@H](CC(C)C)C(=O)N[C@@H](CC(=O)O)C(=O)N[C@@H](CO)C(=O)N[C@@H](CCCNC(=N)N)C(=O)N[C@@H](CCCNC(=N)N)C(=O)N[C@@H](C)C(=O)N[C@@H](CCC(N)=O)C(=O)N[C@@H](CC(=O)O)C(=O)N[C@@H](Cc1ccccc1)C(=O)N[C@H](C(=O)N[C@@H](CCC(N)=O)C(=O)N[C@@H](Cc1c[nH]c2ccccc12)C(=O)N[C@@H](CC(C)C)C(=O)N[C@@H](CCSC)C(=O)N[C@@H](CC(N)=O)C(=O)N[C@H](C(N)=O)[C@@H](C)O)C(C)C [compound 18, des - His^1 [Nle^9] glucagon amide] | 7.6 | <0.0012 | – | – | –
7 | Nα- trinitrophenyl [12-homoarginine] glucagon | – | – | does bind to the glucagon receptor | activates another binding system in the hepatocyte membrane leading to the production of inositol trisphosphate and calcium ions | without significant activation of adenylate cyclase
8 | DSQGTFTSHYSKYLDSRRAQDFVQWLMNT-NH2 [compound 9, Asp^1His^9] | 6.3 | <0.0009 | – | – | –
9 | SQGTFTSNYSKYLDSRRAQDFVQWLMNT-NH2 [compound 13, des-His^1[Asn^9]] | 6.52 | <0.0026 | – | – | –
10 | CSCC[C@H](NC(=O)[C@H](CC(C)C)NC(=O)[C@H](Cc1c[nH]c2ccccc12)NC(=O)[C@H](CCC(N)=O)NC(=O)[C@@H](NC(=O)[C@H](Cc1ccccc1)NC(=O)[C@H](CC(=O)O)NC(=O)[C@H](CCC(N)=O)NC(=O)[C@H](C)NC(=O)[C@H](CCCNC(=N)N)NC(=O)[C@H](CCCNC(=N)N)NC(=O)[C@H](CO)NC(=O)[C@H](CC(=O)O)NC(=O)[C@H](CC(C)C)NC(=O)[C@H](Cc1ccc(O)cc1)NC(=O)[C@H](CCCCN)NC(=O)[C@H](CO)NC(=O)[C@H](Cc1ccc(O)cc1)NC(=O)[C@@H](CC(=O)O)NC(=O)[C@H](CO)NC(=O)[C@@H](NC(=O)[C@H](Cc1ccccc1)NC(=O)[C@@H](NC(=O)CNC(=O)[C@H](CCC(N)=O)NC(=O)[C@@H](N)CO)[C@@H](C)O)[C@@H](C)O)C(C)C)C(=O)N[C@@H](CC(N)=O)C(=O)N[C@H](C(N)=O)[C@@H](C)O [compound 10, des-His^1[D-Asp^9]] | 5.9 | <0.0028 | – | – | –
11 | CSCC[C@H](NC(=O)[C@H](CC(C)C)NC(=O)[C@H](Cc1c[nH]c2ccccc12)NC(=O)[C@H](CCC(N)=O)NC(=O)[C@@H](NC(=O)[C@H](Cc1ccccc1)NC(=O)[C@H](CC(=O)O)NC(=O)[C@H](CCC(N)=O)NC(=O)[C@H](C)NC(=O)[C@H](CCCNC(=N)N)NC(=O)[C@H](CCCNC(=N)N)NC(=O)[C@H](CO)NC(=O)[C@H](CC(=O)O)NC(=O)[C@H](CC(C)C)NC(=O)[C@H](Cc1ccc(O)cc1)NC(=O)[C@H](CCCCN)NC(=O)[C@H](CO)NC(=O)[C@H](Cc1ccc(O)cc1)NC(=O)[C@@H](CCC(=O)O)NC(=O)[C@H](CO)NC(=O)[C@@H](NC(=O)[C@H](Cc1ccccc1)NC(=O)[C@@H](NC(=O)CNC(=O)[C@H](CCC(N)=O)NC(=O)[C@@H](N)CO)[C@@H](C)O)[C@@H](C)O)C(C)C)C(=O)N[C@@H](CC(N)=O)C(=O)N[C@H](C(N)=O)[C@@H](C)O [compound 11, des-His^1[D-Glu^9]] | 5.4 | <0.0037 | – | – | –
12 | SQGTFTSFYSKYLDSRRAQDFVQWLMNT-NH2 [compound 19, des-His^1[Phe^9]] | 6.2 | <0.0003 | – | – | –
13 | SQGTFTSGYSKYLDSRRAQDFVQWLMNT-NH2 [compound 15, des - His^1 [Gly^9] glucagon amide] | 6.24 | <0.006 | – | – | –
14 | SQGTFTSQYSKYLDSRRAQDFVQWLMNT-NH2 [compound 14, des-His^1[Gln^9]] | 8.21 | <0.003 | – | – | –
